# Laboratory results: US9902713B2, “Neuroprotective compounds and use thereof” (BOARD OF REGENTS OF THE UNIVERSITY OF TEXAS SYSTEM, priority 2013, dated 2018)
# Key:
# [1] = test system: hippocampal CA1 neurons, myelin and mitochondria; test: Toluidine blue staining and TEM of hippocampus after blast-injury; assay type: in vivo, mice
# Method: To further examine hippocampal structural pathology, we turned to ultrathin ([…]) section histology using toluidine blue staining, as well as transmission electron microscopy (TEM) (FIG. 31). […] In blast-injured animals, however, we observed accumulation of chromatolytic and pyknotic neurons in the CA1 stratum pyramidale, accompanied by decreased dendritic extensions in the stratum radiatum, indicating general ongoing pathologic processes associated with neurodegeneration and consistent with our electrophysiologic data in FIG. 17.
# The stratum radiatum is where CA3 Schaeffer collateral axons synapse with dendrites of CA1 pyramidal cells. This was the circuit we investigated electrophysiologically (FIG. 17), and we next turned to TEM to further characterize blast-injury induced axonal degeneration. […] These axons contained intact and healthy-appearing mitochondria.
# Toluidine blue staining and transmission electron microscopy (TEM). Mice were transcardially perfused with Karnovsky's fixative solution (2% formaldehyde, 2.5% glutaraldehyde, 0.2M sodium cacodylate buffer, 1 mM CaCl2, 2 mM MgCl2, and 42.8 mM NaCl, pH 7.4) two weeks after either sham- or blast-Injury and with or without specified compound treatment. Harvested brains were incubated in Karnovsky's overnight at 4° C. Whole brains were cut in the horizontal plane (100 μm) using a vibratome (Leica 1500). Sections that contained the hippocampus were selected, washed with 0.1M sodium cacodylate buffer and then post fixed with 1% osmium fixative for 1 hr. After washing in 0.1M sodium cacodylate buffer, sections were dehydrated in a series of ethanol (50%, 75%, 95% and 100% ethanol) followed by embedding in EPON resin overnight at 65° C. For toluidine blue staining, semithin sections (1 μm) were cut with an ultramicrotome (Leica UC6) and stained with toluidine blue. Pictures were taken using an upright microscope (Zeiss Axio Imager.M2) with a color camera (AxioCam ICc5). For TEM, ultrathin sections (60 nm) adjacent to the semithin sections were cut with an ultramicrotome, loaded onto a Formvar 200-mesh Ni grid, and counterstained with uranyl acetate and lead citrate. Specimens were examined using a JEOL JEM 1230 electron microscope with a Gatan UltraScan 1000 2 k×2 k CCD camera. See also FIG. 31.
# [2] = biological target: CYP2C19 (Homo sapiens, UniProt P33261); test: Cytochrome P450 inhibition
# Sequence of CYP2C19 (P33261 whole entry): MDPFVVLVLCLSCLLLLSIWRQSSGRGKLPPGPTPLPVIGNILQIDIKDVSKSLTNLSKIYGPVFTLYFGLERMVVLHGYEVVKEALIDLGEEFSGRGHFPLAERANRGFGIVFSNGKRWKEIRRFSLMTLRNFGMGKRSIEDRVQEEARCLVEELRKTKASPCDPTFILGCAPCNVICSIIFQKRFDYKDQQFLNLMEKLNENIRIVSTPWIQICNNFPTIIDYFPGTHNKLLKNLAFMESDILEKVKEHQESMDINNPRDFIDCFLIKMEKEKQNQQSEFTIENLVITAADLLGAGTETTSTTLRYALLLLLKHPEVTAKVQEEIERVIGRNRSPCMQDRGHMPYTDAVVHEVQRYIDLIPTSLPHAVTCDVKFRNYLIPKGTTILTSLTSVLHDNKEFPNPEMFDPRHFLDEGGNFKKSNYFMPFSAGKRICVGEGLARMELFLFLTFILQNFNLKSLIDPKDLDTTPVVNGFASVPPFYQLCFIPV
# [3] = test system: motor neurons in the spinal cord; details: previously reported; cited from earlier work
# [4] = test system: U2OS cells; test: Protection from doxorubicin-mediated toxicity (Dox:Tox); assay type: cell-based
# [5] = blast-injured, oral 0.3 mg/kg/day
SMILES,"CA1 histology (toluidine blue) [1, 5]","axons and neuronal mitochondria (TEM) [1, 5]","axons and neuronal mitochondria (TEM) ([1]; blast-injured, oral 3 mg/kg/d)","CA1 histology (toluidine blue) ([1]; blast-injured, oral 3 mg/kg/day)","CA1 histology (toluidine blue) ([1]; blast-injured, oral 30 mg/kg/d)","axons and neuronal mitochondria (TEM) ([1]; blast-injured, oral 30 mg/kg/d)","CA1 histology (toluidine blue) ([1]; sham-injured, oral 30 mg/kg/d)","axons and neuronal mitochondria (TEM) ([1]; sham-injury, oral 30 mg/kg/d)",IC50 [2] [nM],motor neuron cell death in the spinal cord [3],level of compound required for maximal Dox:Tox protection [4] [µM],"protection from doxorubicin-mediated cell toxicity ([4]; U2OS cells, FIG. 11)"
"COc1cccc(NCC(F)Cn2c3ccc(Br)cc3c3cc(Br)ccc32)n1 (single isomer, unassigned; (-)) [(−)-P7C3-S243, (−)-N-(3-(3,6-dibromo-9H-carbazol-9-yl)-2-fluoropropyl)-6-methoxypyridin-2-amine]",these same pathologic features were present,degenerating axons with characteristic unraveling of the myelin sheath,partial resolution of pathological signs,partially preserve dendritic extension,fully preserved all structural aspects,full protection,did not change,normally myelinated axons,1900,,,
"COc1cccc(NCC(F)Cn2c3ccc(Br)cc3c3cc(Br)ccc32)c1 (stereo not drawn) [P7C3-A20, N-(3-(3,6-dibromo-9H-carbazol-9-yl)-2-fluoropropyl)-3-methoxyaniline]",,,,,,,,,,minimize motor neuron cell death,3,dose-responsive activity
